From ChEMBL document CHEMBL3507680, “University of Dundee, Gates Library screen for HepG2 cell viability”

Assay: Human HepG2 cell viability assay in 384 well format
Format: toxicity, cell-based
Design: dose 125 nL, time 70.5 hour; concentration not given beside the values
Settings: HepG2 cells, read-out: Inhibition

| Compound | cytotoxicity at 70.5 h |
| --- | --- |
| CC(O)C1CCN(C(=O)CCOc2ccccc2F)CC1 (stereo not drawn) | -14.1% |
| O=C(Cn1cc(Cl)cn1)N1CCNC1=O | 48.7% |
| Cc1nc(C)c(COc2ccc(S(=O)(=O)N(C)C)cc2)s1 | -22.5% |
| O=C(Cn1cc(I)cn1)N1CCNC1=O | -8.59% |
| CN(CCNC(=O)Nc1cnn(C)c1)Cc1ccc(F)cc1 | -20.9% |
| CN(CCNC(=O)Nc1ccn(C)n1)Cc1ccc(F)cc1 | -22.5% |
| Cc1cc(C(=O)NCCN2CCCCC2C)nn1C(C)(C)C (stereo not drawn) | -10.9% |
| CC(C)(C)c1nc(CN2CCCC2c2nnc3ccccn23)no1 (stereo not drawn) | -22.6% |
| Cc1cc(C2CCCN(CCc3ccc4c(c3)CCO4)C2)n[nH]1 (stereo not drawn) | -8.81% |
| CN(CCc1ccccc1)c1cnn(C)c(=O)c1Br | -15.5% |
| CCOCC(=O)Nc1nccn1Cc1ccc(Br)cc1 | -5.58% |
| CN1CCN(c2ccc(CO)cc2F)CC1 | -8.87% |
| COc1cccc(CC2CCCN2CC(N)=O)c1 (stereo not drawn) | -8.71% |
| CC(=O)NC1CCCN(Cc2ccc(-n3ccnc3)cc2)C1 (stereo not drawn) | -4.74% |
| COc1cccc(C(O)CN2CCN(C(=O)c3ccsc3)CC2)c1 (stereo not drawn) | -5.91% |
| Cn1ccc(NC(=O)NC2CCCN(c3ccccc3Cl)C2=O)n1 (stereo not drawn) | -0.238% |
| Cc1ccc(N2CCCC(NC(=O)Nc3cnn(C)c3)C2=O)cc1 (stereo not drawn) | 9.02% |
| CC(C)c1ccc(-n2cc(O)c(C(=O)N3CCC(C(N)=O)CC3)n2)cc1 | 0.806% |
| Cc1cc(NC(=O)N(CCC#N)CCCN(C)C)ccc1F | -2.44% |
| COCC(=O)Nc1nccn1Cc1ccc(Br)cc1 | -0.968% |
| NC(=O)CCNC(=O)NCC1(c2ccccc2Cl)CCC1 | -2.77% |
| CNC(=O)c1[nH]nc2ccc(I)cc12 | -3.31% |
| CCc1nnc(CN2CCC(C3CCCCCN3C(=O)C3CC3)CC2)o1 (stereo not drawn) | -1.17% |

| Compound | cytotoxicity at 70.5 h |
| --- | --- |
| Cn1cc(NC(=O)NC2CCCN(c3ccccc3Cl)C2=O)cn1 (stereo not drawn) | -5.63% |
| N#CCCCN1CCCC1Cc1ccccc1 (stereo not drawn) | -3.84% |
| COc1ccc(-c2noc(C(CC(C)C)N3CCCCC3=O)n2)cn1 (stereo not drawn) | -0.898% |
| Cc1cc(Br)ccc1C(=O)N(C)CCNS(C)(=O)=O | -6.05% |
| COc1ccccc1C(C)CC(=O)N1CC[C@H](O)C1 (stereo partly drawn) | -1.27% |
| Cc1nn(C)c(C)c1C1CCCN1C(=O)Cc1cn2ccsc2n1 (stereo not drawn) | 23.9% |
| Cc1nc(CN2CCCC(Nc3ncnc4c3CCC4)C2)no1 (stereo not drawn) | -7.99% |
| Cn1nc(C(C)(C)C)cc1NC(=O)Cn1ccccc1=O | -12% |
| CC(C)(C)c1nc(CN(Cc2cccs2)C2CCS(=O)(=O)C2)cs1 (stereo not drawn) | -2.81% |
| Cc1ccsc1CNC(=O)c1ccc(N2CCOC2=O)cc1 | -7.71% |
| N#Cc1ccc(N2CCCN(CC(=O)N3CCOCC3)CC2)cc1 | 21.1% |
| CC(NC(=O)NCCN1CCCCCC1=O)c1ccc(Cl)s1 (stereo not drawn) | -10.6% |
| N#Cc1ccc(N2CCCN(CC(=O)N3CCNC(=O)C3)CC2)cc1 | 3.9% |
| COCCN1CCC(CNC(=O)C2(NC(C)=O)CCCCC2)CC1 | -8.37% |
| CNC(=O)CN1CCC(NC(=O)Cc2ccccc2OC(C)C)CC1 | -10.8% |
| Cc1ccccc1C1(CNC(=O)c2ccc(S(C)(=O)=O)cc2)CC1 | 3.63% |
| CCn1c(CN(C)CC(=O)N(C)C)nc2c(F)cccc21 | -11.7% |
| CC1CN(C(=O)c2cscn2)c2ccccc2S1 (stereo not drawn) | 21% |
| Cc1nc(C(=O)N2CC(C)Sc3ccccc32)cs1 (stereo not drawn) | -7.31% |
| OCC(O)CSCc1cn(-c2ccc(Cl)cc2)nn1 (stereo not drawn) | 0.0879% |
| CN(Cc1cccs1)C(=O)CN(C)C1CCc2ccccc21 (stereo not drawn) | -7.67% |
| COCCN1CCC(CNC(=O)C2(C#N)CCCC2)CC1 | 17.6% |
| Cc1nc(C)n(Cc2cccc(NC(=O)N(C)CCC(C)O)c2)n1 (stereo not drawn) | -7.61% |

| Compound | cytotoxicity at 70.5 h |
| --- | --- |
| CCC1(CNCc2ncc[nH]2)CCCC1 | -13.3% |
| O=C(c1ncoc1-c1ccco1)N1CCCN(c2ncccn2)CC1 | -12.9% |
| CN(Cc1ccc(Cl)s1)C(=O)CN(C)C1CCc2ccccc21 (stereo not drawn) | -13.1% |
| CNC(=O)N1C[C@H]2N(c3ncccn3)CCC[C@@]2(C(=O)NCC2CC2)C1 | 0.471% |
| CC(C)Nc1ncnc2c1CCN(C(=O)NCc1cccc(F)c1)CC2 | -7.17% |
| CO[C@@H]1CO[C@@]2(CCCN(C(=O)C3CC=CC3)C2)C1 | -1.96% |
| O=C(NCc1ccccn1)[C@@]12CCO[C@@H]1CCN(c1ncccn1)C2 | -4.87% |
| CC(=O)N1CCC2(CC1)c1ncc(-c3cccnc3)n1CCN2C | 0.401% |
| CC(=O)N1CCC2(CC1)c1ncc(-c3ccccc3)n1CCN2C | -9.38% |
| O=C(c1ccco1)N1CCC2(CCCN(c3ncc(F)cn3)C2)C1 (stereo not drawn) | 13.2% |
| CCCS(=O)(=O)N1C[C@@H](c2ccccc2)[C@@]2(CCNC2=O)C1 | 5.81% |
| CC(C)Nc1nc(-c2ccccc2)nc2c1CCN(C(=O)CC#N)CC2 | -3.92% |
| COCC(=O)N1CCc2nc(NC(C)C)nc(NC(C)C)c2CC1 | -0.713% |
| CC(=O)N1CCO[C@@H]2CN(S(=O)(=O)C3CC3)C[C@@H]2C1 | -0.958% |
| CCOC[C@@]12CCC[C@@H]1CN(C(=O)COc1ccccc1OC)C2 | -8.07% |
| O=C(N[C@@H]1CN(Cc2ccoc2)C[C@@H]2CCCO[C@@H]21)C1CCC1 | -11.2% |
| CC(=O)N1CCOC2(CCN(C(=O)C3CC3)CC2)C1 | -10.3% |
| Cn1nnc2c1C(COCC1CC1)CN(C(=O)CC1=CCCCC1)C2 (stereo not drawn) | -2% |
| Cc1nc(C)c2c(n1)CCN(C(=O)C1(C#N)CC1)CC2 | -1.89% |
| COc1nn(C)c2c1CCCN(C(=O)c1c[nH]cn1)C2 | -1.78% |
| Cn1nc(C#N)c2c1CN(C(=O)c1c[nH]cn1)CCC2 | -7.05% |
| Cc1nc2c(c(NC3CC3)n1)CCN(C(=O)C1(C#N)CC1)CC2 | -16.3% |
| COCC1CN(S(=O)(=O)c2ccccc2)Cc2ncnn2C1 (stereo not drawn) | -6.59% |

| Compound | cytotoxicity at 70.5 h |
| --- | --- |
| COCC1CN(S(=O)(=O)c2cccs2)Cc2ncnn2C1 (stereo not drawn) | -12.8% |
| Cc1ccc(N2CCCC3(CCN(C(=O)CC(F)(F)F)C3)C2)nn1 (stereo not drawn) | -10.2% |
| CCN1CCC2(CC1)CC(NC(=O)c1c[nH]cn1)c1ccccc1O2 (stereo not drawn) | -6.71% |
| CCOCC1CN(S(=O)(=O)C2CC2)Cc2nn(C)cc21 (stereo not drawn) | -5.98% |
| Cc1nc([C@@H]2C[C@H]3CN(Cc4ccc5c(c4)OCO5)C[C@H]3O2)no1 | -10.1% |
| CN(C)CC(=O)N1Cc2nnn(C)c2C(COCC2CC2)C1 (stereo not drawn) | -11.8% |
| Cn1nnc2c1C(COCC1CC1)CN(C(=O)C1=CCCC1)C2 (stereo not drawn) | -9.91% |
| O=C(NC1CCc2c(ccc(=O)n2CC2CC2)C1)c1cscn1 (stereo not drawn) | 18.1% |
| Cc1cccc(-c2nnn3c2COC(CNS(=O)(=O)C2CC2)C3)c1 (stereo not drawn) | -9.41% |
| O=C(c1cccnc1)N1C[C@@H]2CN(CCN3CCCC3)C(=O)[C@@H]2C1 | -6.24% |
| Cc1nn(CCNS(=O)(=O)NCc2ccccc2)c(C)c1Cl | -6.81% |
| CCn1ncnc1CN1CCc2[nH]cnc2C1c1ccccn1 (stereo not drawn) | 14.3% |
| COCCN(C)C(C(=O)O)c1ccc2ccccc2c1 (stereo not drawn) | 6.21% |
| CCc1nnc(CN2CCC(C3CCCCCN3C(C)=O)CC2)o1 (stereo not drawn) | 8.88% |
| Cc1nccc(NCc2cncc3c2CCN(S(C)(=O)=O)C3)n1 | 1.9% |
| CN(Cc1ccco1)Cc1cncc2c1CCN(Cc1ccoc1)C2 | -8.02% |
| CN1CCc2c(CNC(=O)c3nccn3C)cncc2C1 | -0.526% |
| Cc1noc(C)c1CN1CCC2(CC1)NC(=O)CC2c1ccccc1 (stereo not drawn) | 2.78% |
| Cc1ccc(CN2CCC3(CC2)C(c2ccccc2)CC(=O)N3C)o1 (stereo not drawn) | 0.715% |
| CS(=O)(=O)N1CC[C@H]2OCC[C@@]2(C(=O)NCc2ccccn2)C1 | -2.32% |
| CCn1ncc2c1C(COC)N(C(=O)CCc1ccccc1)CC2 (stereo not drawn) | 11.6% |
| CN1CCCN(C(=O)c2ccnn2-c2ccc3ccccn23)CC1 | 12.9% |
| O=C([C@H]1CCCO1)N1CCN(CCn2cccn2)c2ncccc2C1 | -5.29% |

| Compound | cytotoxicity at 70.5 h |
| --- | --- |
| Cc1cnc(CNC(=O)[C@@]23CCO[C@@H]2CCN(C2CCCC2)C3)cn1 | -1.73% |
| O=C(C1CCOC1)N1CCN(CCn2cccn2)c2ncccc2C1 (stereo not drawn) | -1.8% |
| Cc1oncc1C(=O)N[C@@H]1CN(C2CCC2)C[C@@H]2CCCO[C@@H]21 | -0.67% |
| O=C(COC[C@]12COC[C@H]1CN(C1CCC1)C2)N1CCCC1 | 3.04% |
| CN(C)C1CCN(C(=O)c2ccnn2-c2ccc3ccccn23)CC1 | -5.01% |
| CC(C)CNC(=O)N1CCC2(CC1)OC(C(N)=O)Cn1ccnc12 (stereo not drawn) | -4.1% |
| O=C(c1ccc2[nH]ccc2c1)N1CC[C@@H]2CN(CC3CC3)CCO[C@@H]2C1 | -7.61% |
| O=C(NC1CC1)[C@@H]1CCO[C@@H]2CCN(CC3CCC3)C[C@@H]21 | -11.4% |
| COCCN1CCOCC2(CCN(c3cnccn3)CC2)C1 | 8.46% |
| Cc1cccc(CN2CCC3(CCC(CC(=O)N(C)C)CC3)CC2)n1 | -8.22% |
| CC(C)N1CCOCC2(CCN(c3cnccn3)CC2)C1 | -11.1% |
| Cc1ccc(CN2CCC3(CCCN3S(C)(=O)=O)CC2)s1 | -11.8% |
| Cc1ccc(CN2CCCC3(CCCC(=O)N3C)C2)s1 (stereo not drawn) | -9.33% |
| O=C(c1ccccn1)N1CCC2(CCCN(c3nncs3)C2)C1 (stereo not drawn) | -9.42% |
| Cc1ccc(CN2CCC[C@]3(C(=O)O)CN(C)C[C@@H]3C2)s1 | -14.3% |
| COCCN1CCC2(CC1)CC(N1CCOCC1)c1cc(C)ccc12 (stereo not drawn) | 4.82% |
| CN(Cc1ccccn1)C1CCC[C@@H]2CN(CC3CC3)C[C@H]12 (stereo partly drawn) | 17.7% |
| C[C@@H]1CN(C2CCOC2)C[C@]12CCN(Cc1cccnc1)C2=O (stereo partly drawn) | -10.6% |
| c1cncc(COCc2cncc3c2CCN(Cc2ccoc2)C3)c1 | -9.45% |
| CC(C)N1[C@H](Cn2cncn2)C[C@@H]2CN(Cc3nccn3C)CC[C@@H]21 | -6.18% |
| CN1CCN(Cc2cccnc2)C(=O)C12CCN(CC1CCOC1)CC2 (stereo not drawn) | -6.06% |
